The numbers were not newly measured in US20230046278A1, “METHOD FOR COLOURING KERATIN MATERIAL, COMPRISING THE USE OF AN ORGANIC C1-C6 ALKOXYSILANE AND TWO STRUCTURALLY DIFFERENT CELLULOSE TYPES” (Henkel AG & Co. KGaA, priority 2019, published 2023), which cites them from elsewhere.

Values after ≈ are worked out from the molar mass of the structure shown.

The conditions of the series: 25° C.

`O=[N+]([O-])c1cc([N+](=O)[O-])c2ccc(S(=O)(=O)O)cc2c1O` [Acid Yellow 9, 8-hydroxy-5,7-dinitro-2-naphthalenesulfonic acid]: the solubility in water entry is given as “above 40 g/L”. For `O=C(O)C1=NN(c2ccc(S(=O)(=O)O)cc2)C(=O)C1N=Nc1ccc(S(=O)(=O)O)cc1` (centres unmarked) [Acid Yellow 23, 4,5-dihydro-5-oxo-1-(4-sulfophenyl)-4-((4-sulfophenyl)azo)-1H-pyrazole-3-carboxylic acid], the “solubility in water (in words)” value is on record as “readily soluble”. In the case of `CCN(Cc1cccc(S(=O)(=O)O)c1)c1ccc(C(=C2C=CC(=[N+](CC)Cc3cccc(S(=O)(=O)O)c3)C=C2)c2ccccc2S(=O)(=O)[O-])cc1` [Acid Blue 9], the water solubility entry is “greater than 20 % by weight”. In the case of `O=S(=O)(O)c1ccc(N=Nc2c(O)ccc3ccccc23)cc1` [Acid Orange 7, 4-[(2-hydroxy-1-naphthyl)azo]benzenesulfonate], the solubility in water result was “more than 7 g/L”. In the case of `Nc1cc(S(=O)(=O)O)cc2cc(S(=O)(=O)O)c(N=Nc3ccccc3)c(O)c12` [Acid Red 33, 5-amino-4-hydroxy-3-(phenylazo)-naphthalene-2,7-disulphonate], the solubility in water was 2500 µg/mL (≈ 5.9 mM).
